According to US12077503B2, “Substituted cyclic amides and their use as herbicides” (FMC CORPORATION, priority 2015, dated 2024):

Assays:
Type in all cases: in vivo
Kochia (Kochia scoparia) [1] = experiment: Test A preemergence; conditions: Bassia scoparia, pre-emergence, 240 h, 0 to 100 scale where 0 is no effect and 100 is complete control, read-out: Kochia plant response rating
Procedure, shortened: (§1)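 Each rating is a visual injury score from 0 to 100 given about 10 d after treatment, judged against untreated controls kept alongside in the greenhouse. In loam soil–sand blend, seeds got a preemergence directed soil spray, while postemergence plants were 2 to 10 cm tall at spraying.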

[2] = tested on: ragweed (common ragweed, Ambrosia elatior); experiment: Test A preemergence; conditions: Ambrosia artemisiifolia, pre-emergence, 240 h, 0 to 100 scale where 0 is no effect and 100 is complete control, read-out: Ragweed plant response rating
Procedure, shortened: as §1

[3] = tested on: pigweed (Amaranthus retroflexus); experiment: Test A preemergence; conditions: Amaranthus retroflexus, pre-emergence, 240 h, 0 to 100 scale where 0 is no effect and 100 is complete control, read-out: Pigweed plant response rating
[4] = tested on: giant foxtail (Setaria faberii); experiment: Test A preemergence; conditions: Setaria faberi, pre-emergence, 240 h, 0 to 100 scale where 0 is no effect and 100 is complete control, read-out: Foxtail, Giant plant response rating
Procedure, shortened: as §1

[5] = tested on: ryegrass, Italian (Italian ryegrass, Lolium multiflorum); experiment: Test A preemergence; conditions: Lolium multiflorum, pre-emergence, 240 h, 0 to 100 scale where 0 is no effect and 100 is complete control, read-out: Ryegrass, Italian plant response rating
Procedure, shortened: as §1

[6] = tested on: barnyardgrass (Echinochloa crus-galli); experiment: Test A preemergence; conditions: Echinochloa crus-galli, pre-emergence, 240 h, 0 to 100 scale where 0 is no effect and 100 is complete control, read-out: Barnyardgrass plant response rating
Procedure, shortened: as §1

[7] = tested on: sedge, umbrella (small-flower umbrella sedge, Cyperus difformis); experiment: Test B flooded paddy test; conditions: Cyperus difformis, 250 g ai/ha, Flood; 0 to 100 scale where 0 is no effect and 100 is complete control; read-out: Sedge, Umbrella plant response rating
Procedure, shortened: (§2)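 Rating scale 0–100 (visual, vs untreated controls) after a 13–15 d greenhouse period; application to the flood layer, 3 cm above soil and maintained; plants at 2-leaf stage when treated.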

rice (Oryra sativa) = experiment: Test B flooded paddy test; conditions: Oryza sativa, 250 g ai/ha, Flood; 0 to 100 scale where 0 is no effect and 100 is complete control; read-out: Rice plant response rating
Procedure, shortened: as §2

[8] = tested on: barnyardgrass (Echinochloa crus-galli); experiment: Test B flooded paddy test; conditions: Echinochloa crus-galli, 250 g ai/ha, Flood; 0 to 100 scale where 0 is no effect and 100 is complete control; read-out: Barnyardgrass plant response rating
Procedure, shortened: as §2

[9] = tested on: ducksalad (Heteranthera limosa); experiment: Test B flooded paddy test; conditions: Heteranthera limosa, 250 g ai/ha, Flood; 0 to 100 scale where 0 is no effect and 100 is complete control; read-out: Ducksalad plant response rating
Procedure, shortened: as §2

Kochia (Kochia scoparia) [10] = experiment: Test A postemergence; conditions: Bassia scoparia, post-emergence, 240 h, Postemergence, read-out: Kochia plant response rating (0 to 100 scale)
Procedure, shortened: as §1

[11] = tested on: Galium (catchweed bedstraw, Galium aparine); experiment: Test A postemergence; conditions: Galium, post-emergence, 240 h, Postemergence, read-out: Galium plant response rating (0 to 100 scale)
Procedure, shortened: as §1

[12] = tested on: ragweed (common ragweed, Ambrosia elatior); experiment: Test A postemergence; conditions: Ambrosia artemisiifolia, post-emergence, 240 h, Postemergence, read-out: Ragweed plant response rating (0 to 100 scale)
Procedure, shortened: as §1

[13] = tested on: blackgrass (Alopecurus myosuroides); experiment: Test A postemergence; conditions: Alopecurus myosuroides, post-emergence, 240 h, Postemergence, read-out: Blackgrass plant response rating (0 to 100 scale)
Procedure, shortened: as §1

[14] = tested on: wheat (Triticum aestivum); experiment: Test A postemergence; conditions: Triticum aestivum, post-emergence, 240 h, Postemergence, read-out: Wheat plant response rating (0 to 100 scale)
Procedure, shortened: as §1

corn (Zea mays) = experiment: Test A postemergence; conditions: Zea mays, post-emergence, 240 h, Postemergence, read-out: Corn plant response rating (0 to 100 scale)
Procedure, shortened: as §1

[15] = tested on: pigweed (Amaranthus retroflexus); experiment: Test A postemergence; conditions: Amaranthus retroflexus, post-emergence, 240 h, Postemergence, read-out: Pigweed plant response rating (0 to 100 scale)
Procedure, shortened: as §1

[16] = tested on: giant foxtail (Setaria faberii); experiment: Test A postemergence; conditions: Setaria faberi, post-emergence, 240 h, Postemergence, read-out: Foxtail, Giant plant response rating (0 to 100 scale)
Procedure, shortened: as §1

[17] = tested on: ryegrass, Italian (Italian ryegrass, Lolium multiflorum); experiment: Test A postemergence; conditions: Lolium multiflorum, post-emergence, 240 h, Postemergence, read-out: Ryegrass, Italian plant response rating (0 to 100 scale)
Procedure, shortened: as §1

[18] = tested on: barnyardgrass (Echinochloa crus-galli); experiment: Test A postemergence; conditions: Echinochloa crus-galli, post-emergence, 240 h, Postemergence
Procedure, shortened: as §1

[19] = 125 g ai/ha, preemergence, visual injury rating, approximately 10 d
[20] = 125 g ai/ha, visual rating about 10 d after treatment
[21] = 31 g ai/ha, 0 is no effect, 100 is complete control

O=C(Nc1cccc(F)c1F)[C@H]1C(=O)N(CC(F)F)C[C@@H]1c1cccc(C(F)(F)F)c1 [Compound 1296]
0%: pest or weed control at 31 g/ha (Kochia (Kochia scoparia) [1]; 31 g ai/ha, Preemergence) | pest or weed control at 125 g/ha (Kochia (Kochia scoparia) [1]; [19]) | pest or weed control at 31 g/ha ([2]; 31 g ai/ha, Preemergence) | pest or weed control at 125 g/ha [2, 19] | pest or weed control at 31 g/ha ([3]; 31 g ai/ha, Preemergence) | pest or weed control at 125 g/ha [3, 19] | pest or weed control at 31 g/ha ([5]; 31 g ai/ha, Preemergence) | pest or weed control at 125 g/ha [5, 19] | pest or weed control at 250 g/ha [7] | pest or weed control at 250 g/ha [9] | pest or weed control at 125 g/ha (Kochia (Kochia scoparia) [10]; [20]) | pest or weed control at 31 g/ha (Kochia (Kochia scoparia) [10]; [21]) | pest or weed control at 125 g/ha [11, 20] | pest or weed control at 31 g/ha [11, 21] | pest or weed control at 125 g/ha [12, 20] | pest or weed control at 31 g/ha [12, 21] | pest or weed control at 125 g/ha [13, 20] | pest or weed control at 31 g/ha [13, 21] | plant injury at 125 g/ha [14, 20] | plant injury at 31 g/ha [14, 21] | plant injury at 125 g/ha (corn (Zea mays); [20]) | plant injury at 31 g/ha (corn (Zea mays); [21]) | pest or weed control at 125 g/ha [15, 20] | pest or weed control at 31 g/ha [15, 21] | pest or weed control at 31 g/ha [16, 21] | pest or weed control at 125 g/ha [17, 20] | pest or weed control at 31 g/ha [17, 21] | pest or weed control at 31 g/ha ([18]; 31 g ai/ha, 0 is no effect, 100 is complete control, read-out: Barnyardgrass plant response rating (0 to 100 scale))
20%: pest or weed control at 31 g/ha ([4]; 31 g ai/ha, Preemergence) | pest or weed control at 31 g/ha ([6]; 31 g ai/ha, Preemergence)
60%: pest or weed control at 125 g/ha [4, 19]
30%: pest or weed control at 250 g/ha (rice (Oryra sativa)) | pest or weed control at 125 g/ha [16, 20] | pest or weed control at 125 g/ha ([18]; 125 g ai/ha, visual rating about 10 d after treatment, read-out: Barnyardgrass plant response rating (0 to 100 scale, 0 no effect, 100 complete control))
15%: pest or weed control at 250 g/ha [8]
70%: pest or weed control at 125 g/ha [6, 19]
